This note sets out measurements from patent US10307414B2, “Pyridinyl and fused pyridinyl triazolone derivatives” (Takeda Pharmaceutical Company Limited, priority 2013, dated 2019).

SMILES strings stand for the structures.

For the assay, the target named is human BTK (Homo sapiens (Human), UniProt Q06187). As to the kind of experiment: BTK inhibition assay: BTK-mediated phosphorylation of FAM-labeled substrate 5-FAM-[…]-NH2 (Caliper microfluidic separation). The format is biochemical. The settings on record: residues 382 to 659 of human BTK; 60 minutes at room temperature; pIC50 = -log(IC50), IC50 molar. The source says: The activity of compounds as BTK inhibitors may be determined by a variety of methods, including in vitro and in vivo methods.
This construct engineers an in-frame translational fusion with the Glutathione-S-Transferase (GST) protein for use in affinity purification. The fusion protein derived from this construct contains a protease recognition sequence to liberate the BTK from the GST affinity tag. […] Recombinant proteins are isolated from cellular extracts by passage over Glutathione Sepharose 4B (GE Healthcare) and the BTK moiety is released from the GST affinity tag by treatment with PreScission protease. […] The purity of the fractions is assessed by SDS PAGE and the peak protein fractions are pooled and concentrated using Amicon Ultra-15 Centrifugal Filter Devices (Millipore).
The inhibitory properties of compounds relative to BTK is determined using a black 384-well-plate format in a buffer which contains 50 mM Hepes, 10 mM NaCl, 10 mM MgCl2, 0.2 mM EDTA, 0.01% Brij35®, 1 mM DTT, and 0.1 mg/mL BSA at pH 7.3. […] To quantify the fluorescent-labeled substrate and product following reaction, the test plate is loaded on a Caliper LC-3000, which measures percent of conversion by microfluidic-based separation. […]

human BTK, sequence (Q06187 382-659): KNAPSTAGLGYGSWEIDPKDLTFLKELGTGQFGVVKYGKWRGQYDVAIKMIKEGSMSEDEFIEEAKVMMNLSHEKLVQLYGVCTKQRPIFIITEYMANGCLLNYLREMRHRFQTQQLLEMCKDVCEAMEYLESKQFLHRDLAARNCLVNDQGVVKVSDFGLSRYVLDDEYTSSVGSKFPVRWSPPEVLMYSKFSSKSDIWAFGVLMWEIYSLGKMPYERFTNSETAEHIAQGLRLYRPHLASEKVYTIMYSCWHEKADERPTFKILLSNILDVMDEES

As for `C=CC(=O)N1C[C@@H](C)[C@H](Oc2nc(-c3n[nH]c(=O)[nH]3)cc3ccccc23)C1` (single isomer, unassigned) [Example 19], the “BTK Inhibition (pIC50)” value is reported as greater than 8.2.
